According to patent US5202339A, “Hydantoin derivatives” (Mochida Pharmaceutical Co., Ltd., priority 1987, dated 1993):

Experiments:
[1] = target: T1, rat lens aldose reductase (Rattus norvegicus, UniProt P07943); experiment: inhibitory activity on rat lens aldose reductase (Experimental Example 1); assay type: biochemical; conditions: for IC50: pH 6.2, 10 mM DL-glyceraldehyde, 0.16 mM NADPH; for potency relative to reference compound A: ratio in words
T1 construct: rat lens aldose reductase; from tissue; host or cells: rat lens
Protocol: The inhibitory activities of hydantoin derivatives on rat lens aldose reductase were measured according to the procedure of Inagaki et al. (K. Inagaki et al., Arch. Biochem. Biophys., 216, 337 (1982)) with slight modifications. Assays were performed in 0.1M phosphate buffer (pH 6.2) containing 0.4M ammonium sulfate, 10 mM DL-glyceraldehyde, 0.16 mM nicotinamide adenine dinucleotide phosphate, reduced form (NADPH) and aldose reductase (0.010-0.016 units) in a total volume of 1.0 ml. To this mixture was added 10 μl of the solution of each hydantoin derivative to be tested, and the decrease in absorbance at 340 nm was measured with a spectrophotometer.
The concentrations of typical hydantoin derivatives of the present invention required to produce 50% inhibition are shown in table 1.

[2] = system: Streptozotocin-Diabetic Rats; experiment: Hypoglycemic Effects in Streptozotocin-Diabetic Rats (Experimental Example 4); assay type: in vivo, rat (male Wistar); conditions: Rattus norvegicus; STZ-diabetic rats, 100 mg/kg oral, 6 hrs after administration; read-out: Lowering rate of serum glucose (%)
Protocol: Diabetic rats were produced according to the method of Junod et al. (A. Junod et al., J. Clin. Invest., 48, 2129 (1969)). Briefly, male Wistar rats were given 26.5 mg/kg of streptozotocin (STZ) intravenously. Four days later, the rats with serum glucose levels of between 400 and 500 mg/dl were used. After being fasted for 4 hrs, groups of 5 diabetic rats were orally administered with the compounds of the present invention or gliclazide in a dose of 100 mg/kg. Blood sample were collected from the orbital vein before and 6 hrs after the administration. Serum glucose levels were determined by the enzymatic method with an autoanalyzer (Cobas Fara®, Roche).

[3] = target: T2, bovine lens aldose reductase (Bos taurus, UniProt P16116); experiment: inhibitory activity on bovine lens aldose reductase (Experimental Example 2); assay type: biochemical; conditions: for IC50: pH 6.2, 10 mM DL-glyceraldehyde, 0.16 mM NADPH
T2 construct: bovine lens aldose reductase preparation was used; from tissue; host or cells: bovine lens
Protocol: Assays were performed in 0.1M phosphate buffer (pH 6.2) containing 0.4M ammonium sulfate, 10 mM DL-glyceraldehyde, 0.16 mM nicotinamide adenine dinucleotide phosphate, reduced form (NADPH) and aldose reductase (0.010-0.016 units) in a total volume of 1.0 ml. To this mixture was added 10 μl of the solution of each hydantoin derivative to be tested, and the decrease in absorbance at 340 nm was measured with a spectrophotometer.

ICR strain mice = experiment: acute toxicity in mice (Experimental Example 3); assay type: in vivo; conditions: 1 g/kg, oral, groups of 5 ICR mice
Text: Hydantoin derivatives of the present invention were examined for acute toxicity.

For Cc1ccc2ccc(S(=O)(=O)N3CC(=O)NC3=O)cc2c1 [Compound 14, 1-(7-methylnaphthalen-2-ylsulfonyl)hydantoin], which IC50 [1] is on record?
The IC50 was 350 nM.

With O=C1CN(S(=O)(=O)c2ccc3cc(Br)ccc3c2)C(=O)N1 [Compound 10, 1-(6-bromonaphthalen-2-ylsulfonyl)hydantoin] as the compound, how does the IC50 [1] read?
Its IC50 is 170 nM.

For O=C1CN(S(=O)(=O)c2cc3c(Cl)cccc3s2)C(=O)N1 [Compound 40, 1-(4-chlorobenzo[b]thiophen-2-yl-sulfonyl)hydantoin], which inhibition in vivo at 100 mg/kg [2] is on record?
Its inhibition in vivo at 100 mg/kg is 11%.

What about the IC50 [3] of the same compound?
The IC50 was 170 nM.

And the “acute toxicity: change observed over the one-week period after administration” value (shortened to “acute toxicity: change observed”) (ICR strain mice)?
Its value is “no change was observed”.

What does the source list for O=C1CN(S(=O)(=O)c2cc3ccccc3s2)C(=O)N1 [Compound 16, 1-(benzo[b]thiophen-2-ylsulfonyl)hydantoin]?
inhibition in vivo at 100 mg/kg [2]: 33.5%; IC50 [3]: 390 nM

Cc1cc2ccccc2cc1S(=O)(=O)N1CC(=O)NC1=O [Compound 12, 1-(3-methylnaphthalen-2-ylsulfonyl)hydantoin] was tested. Which IC50 [1] did it give?
Its IC50 is 140 nM.

O=C1CN(S(=O)(=O)c2cc3cc(Cl)c(Cl)cc3o2)C(=O)N1 [Compound 45, 1-(5,6-dichlorobenzo[b]furan-2-yl-sulfonyl)hydantoin] was tested. Which inhibition in vivo at 100 mg/kg [2] did it give?
The inhibition in vivo at 100 mg/kg was 28.5%.

And the IC50 [3]?
The IC50 was 83 nM.

What about the “acute toxicity: change observed” value (ICR strain mice) of the same compound?
Its value is “no change was observed”.

What does the source list for O=C1CN(S(=O)(=O)c2sc3c(F)cccc3c2Br)C(=O)N1 [Compound 34, 1-(3-bromo-7-fluorobenzo[b]thiophen-2-ylsulfonyl)hydantoin]?
inhibition in vivo at 100 mg/kg [2]: 13.2%; IC50 [3]: 85 nM

What does the source list for O=C1CN(S(=O)(=O)c2cc3ccccc3cc2Br)C(=O)N1 [Compound 9, 1-(3-bromonaphthalen-2-ylsulfonyl)hydantoin]?
inhibition in vivo at 100 mg/kg [2]: 17.4%; IC50 [1]: 350 nM

O=C1CN(S(=O)(=O)c2ccc3c([N+](=O)[O-])cccc3c2)C(=O)N1 [Compound 11, 1-(5-nitronaphthalen-2-ylsulfonyl)hydantoin] was tested. Which IC50 [1] did it give?
The IC50 was 100 nM.

With Cc1ccc2cc(S(=O)(=O)N3CC(=O)NC3=O)ccc2c1[N+](=O)[O-] [Compound 13, 1-(6-methyl-5-nitronaphthalen-2-yl-sulfonyl)hydantoin] as the compound, how does the “inhibitory activity against aldose reductase compared with reference compound B” value ([3]; in words) read?
The value was “stronger inhibitory activities against aldose reductase”.

And the IC50 [3]?
Its IC50 is 100 nM.

What about the IC50 [1] of the same compound?
The IC50 was 27 nM.

What about the “potency relative to reference compound A” value [1] of the same compound?
The value was “ten times or more potent”.

For O=C1CN(S(=O)(=O)c2cc3cc(F)ccc3s2)C(=O)N1 [Compound 39, 1-(5-fluorobenzo[b]thiophen-2-yl-sulfonyl)hydantoin], which inhibition in vivo at 100 mg/kg [2] is on record?
The inhibition in vivo at 100 mg/kg was 16%.

What about the IC50 [3] of the same compound?
The IC50 was 320 nM.

Which IC50 [1] does the source give for O=C1CN(S(=O)(=O)c2ccc3ccccc3c2)C(=O)N1 [Compound A, 1-(naphthalene-2-ylsulfonyl)hydantoin, reference compound] here?
The IC50 was 660 nM.

What does the source list for O=C1CN(S(=O)(=O)c2cc3c(Cl)cc(Cl)cc3o2)C(=O)N1 [Compound 37, 1-(4,6-dichlorobenzo[b]furan-2-yl-sulfonyl)hydantoin]?
inhibition in vivo at 100 mg/kg [2]: 14.5%; IC50 [3]: 170 nM

How did the inhibition in vivo at 100 mg/kg [2] turn out when O=C1CN(S(=O)(=O)c2cc3ccccc3o2)C(=O)N1 [Compound 19, 1-(benzo[b]furan-2-ylsulfonyl)hydantoin] was run?
The inhibition in vivo at 100 mg/kg was 52.1%.

And the “acute toxicity: change observed” value (ICR strain mice)?
Its value is “no change was observed”.

Which results are given for O=C1CN(S(=O)(=O)c2ccc3c(Cl)cccc3c2)C(=O)N1 [Compound 3, 1-(5-chloronaphthalen-2-ylsulfonyl)hydantoin]?
inhibition in vivo at 100 mg/kg [2]: 19%; IC50 [1]: 190 nM

With O=C1CN(S(=O)(=O)c2oc3ccccc3c2I)C(=O)N1 [Compound 53, 1-(3-iodobenzo[b]furan-2-ylsulfonyl)hydantoin] as the compound, how does the inhibition in vivo at 100 mg/kg [2] read?
Its inhibition in vivo at 100 mg/kg is 19%.

What does the source list for O=C1CN(S(=O)(=O)c2cc3c(Cl)c(Cl)ccc3o2)C(=O)N1 [Compound 44, 1-(4,5-dichlorobenzo[b]furan-2-yl-sulfonyl)hydantoin]?
inhibition in vivo at 100 mg/kg [2]: 21.1%; IC50 [3]: 61 nM; acute toxicity: change observed over the one-week period after administration (ICR strain mice): no change was observed

For O=C1CN(S(=O)(=O)c2nc3ccccc3s2)C(=O)N1 [Compound 22, 1-(benzothiazol-2-ylsulfonyl)hydantoin], which inhibition in vivo at 100 mg/kg [2] is on record?
Its inhibition in vivo at 100 mg/kg is 15%.

What about the IC50 [3] of the same compound?
The IC50 was 340 nM.

Which IC50 [1] does the source give for O=C1CN(S(=O)(=O)c2cc3ccccc3cc2Cl)C(=O)N1 [Compound 2, 1-(3-chloronaphthalen-2-ylsulfonyl)hydantoin] here?
Its IC50 is 160 nM.

With O=C1CN(S(=O)(=O)c2ccc3cccc(Cl)c3c2)C(=O)N1 [Compound 6, 1-(8-chloronaphthalen-2-ylsulfonyl)hydantoin] as the compound, how does the IC50 [1] read?
The IC50 was 460 nM.

How did the IC50 [1] turn out when O=C1CN(S(=O)(=O)c2ccc3cc(Cl)ccc3c2)C(=O)N1 [Compound 4, 1-(6-chloronaphthalen-2-ylsulfonyl)hydantoin] was run?
Its IC50 is 140 nM.

How did the inhibition in vivo at 100 mg/kg [2] turn out when O=C1CN(S(=O)(=O)c2c(Cl)sc3ccccc23)C(=O)N1 [Compound 35, 1-(2-chlorobenzo[b]thiophen-3-yl-sulfonyl)hydantoin] was run?
The inhibition in vivo at 100 mg/kg was 14%.

And the IC50 [3]?
The IC50 was 300 nM.

For O=C1CN(S(=O)(=O)c2ccc3ccccc3c2Br)C(=O)N1 [Compound 8, 1-(1-bromonaphthalen-2-ylsulfonyl)hydantoin], which IC50 [1] is on record?
Its IC50 is 94 nM.

O=C1CN(S(=O)(=O)c2cc3cc(Br)ccc3o2)C(=O)N1 [Compound 21, 1-(5-bromobenzo[b]furan-2-ylsulfonyl)hydantoin] was tested. Which inhibition in vivo at 100 mg/kg [2] did it give?
The inhibition in vivo at 100 mg/kg was 22.3%.

What about the IC50 [3] of the same compound?
Its IC50 is 300 nM.

What about the “acute toxicity: change observed” value (ICR strain mice) of the same compound?
The value was “no change was observed”.

Which inhibition in vivo at 100 mg/kg [2] does the source give for O=C1CN(S(=O)(=O)c2cc3ccc(Cl)cc3s2)C(=O)N1 [Compound 26, 1-(6-chlorobenzo[b]thiophen-2-yl-sulfonyl)hydantoin] here?
Its inhibition in vivo at 100 mg/kg is 33.1%.

And the IC50 [3]?
Its IC50 is 270 nM.

What does the source list for COc1ccc2cc(S(=O)(=O)N3CC(=O)NC3=O)ccc2c1[N+](=O)[O-] [Compound 15, 1-(6-methoxy-5-nitronaphthalen-2-yl-sulfonyl)hydantoin]?
inhibitory activity against aldose reductase compared with reference compound B ([3]; in words): stronger inhibitory activities against aldose reductase; IC50 [3]: 230 nM; IC50 [1]: 38 nM; potency relative to reference compound A [1]: ten times or more potent

O=C1CN(S(=O)(=O)c2cc(Cl)sc2Cl)C(=O)N1 [Compound 24, 1-(2,5-dichlorothiophen-3-ylsulfonyl)hydantoin] was tested. Which “potency compared with compound 13 and 15” value ([3]; in words) did it give?
The value was “as potent as compound 13 and 15”.

What about the IC50 [3] of the same compound?
Its IC50 is 290 nM.

And the “acute toxicity: change observed” value (ICR strain mice)?
Its value is “no change was observed”.

O=C1CN(S(=O)(=O)c2ccc3ccccc3c2F)C(=O)N1 [Compound 50, 1-(1-fluoronaphthalen-2-ylsulfonyl)hydantoin] was tested. Which inhibition in vivo at 100 mg/kg [2] did it give?
Its inhibition in vivo at 100 mg/kg is 48.8%.

Which IC50 [1] does the source give for O=C1CN(S(=O)(=O)c2ccc3ccc(Cl)cc3c2)C(=O)N1 [Compound 5, 1-(7-chloronaphthalen-2-ylsulfonyl)hydantoin] here?
The IC50 was 390 nM.

What does the source list for O=C1CN(S(=O)(=O)c2ccc3ccccc3c2Cl)C(=O)N1 [Compound 1, 1-(1-chloronaphthalen-2-ylsulfonyl)hydantoin]?
inhibition in vivo at 100 mg/kg [2]: 37.2%; IC50 [1]: 290 nM

How did the inhibition in vivo at 100 mg/kg [2] turn out when O=C1CN(S(=O)(=O)c2nsc3ccccc23)C(=O)N1 [Compound 41, 1-(benzo[b]isothiazol-3-ylsulfonyl)hydantoin] was run?
Its inhibition in vivo at 100 mg/kg is 23.6%.

And the IC50 [3]?
The IC50 was 470 nM.

Which inhibition in vivo at 100 mg/kg [2] does the source give for O=C1CN(S(=O)(=O)c2cc3cc(Cl)ccc3o2)C(=O)N1 [Compound 20, 1-(5-chlorobenzo[b]furan-2-ylsulfonyl)hydantoin] here?
Its inhibition in vivo at 100 mg/kg is 12.8%.

What about the IC50 [3] of the same compound?
Its IC50 is 360 nM.

What about the “acute toxicity: change observed” value (ICR strain mice) of the same compound?
Its value is “no change was observed”.
